Key:
Format in all cases: cell-based
[1] = target: T1, TRPV1 (Rattus norvegicus, UniProt O35433); assay: TRPV1-mediated calcium flux (Fluo-4) in HEK cells inducibly expressing TRPV1; settings: for AUC of calcium response curve, first application: AUC (between 20-300 nM), compound first introduced to TRPV1-expressing cells; for suppression of later calcium response by pre-incubation (desensitization): 24 hours pre-incubation with the same compound; for concentration inducing calcium influx to a similar degree (by AUC): AUC between 20 and 300 nM of calcium response curves; for AUC of calcium response after 24 hours incubation with the same compound: cells incubated with compound for 24 hours, then re-stimulated; for calcium flux (Fluo-4 RFU) in TRPV1-expressing HEK cells: stimulus applied to cell culture medium, mixtures at Table 1 concentrations
T1 construct: FLAG; expressed in transfected cells; host or cells: TRex HEK293 (HEK293 stably carrying pcDNA6TR), induced with tetracycline
T1 sequence (O35433 whole entry): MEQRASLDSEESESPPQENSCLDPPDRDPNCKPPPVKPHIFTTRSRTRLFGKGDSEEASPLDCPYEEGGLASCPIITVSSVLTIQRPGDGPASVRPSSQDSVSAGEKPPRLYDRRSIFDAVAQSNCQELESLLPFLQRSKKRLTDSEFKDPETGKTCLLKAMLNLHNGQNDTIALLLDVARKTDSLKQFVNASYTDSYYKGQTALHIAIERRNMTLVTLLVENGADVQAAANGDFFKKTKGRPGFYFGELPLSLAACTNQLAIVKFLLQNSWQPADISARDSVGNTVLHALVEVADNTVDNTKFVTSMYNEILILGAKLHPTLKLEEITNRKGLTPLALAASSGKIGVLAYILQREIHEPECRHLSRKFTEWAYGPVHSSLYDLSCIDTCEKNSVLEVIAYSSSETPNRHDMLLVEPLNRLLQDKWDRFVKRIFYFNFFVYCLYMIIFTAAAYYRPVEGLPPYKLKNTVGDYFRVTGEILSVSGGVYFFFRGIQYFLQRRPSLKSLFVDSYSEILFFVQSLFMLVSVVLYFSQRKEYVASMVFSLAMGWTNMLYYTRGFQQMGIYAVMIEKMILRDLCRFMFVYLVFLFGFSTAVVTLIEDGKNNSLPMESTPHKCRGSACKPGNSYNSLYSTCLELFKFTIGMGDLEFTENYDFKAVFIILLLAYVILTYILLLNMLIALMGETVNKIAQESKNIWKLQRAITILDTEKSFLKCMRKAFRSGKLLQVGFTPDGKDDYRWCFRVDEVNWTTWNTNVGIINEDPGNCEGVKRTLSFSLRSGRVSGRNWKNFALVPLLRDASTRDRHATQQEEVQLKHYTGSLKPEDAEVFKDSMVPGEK
Description: The HEK293 cell line was stably transfected with the pcDNA6TR (Invitrogen, CA) plasmid (encoding the tetracycline-sensitive TREx repressor protein), and was maintained in DMEM+10% fetal bovine serum (inactivated at 55° C. for 1 h)+2 mM glutamine in humidified 5% CO2 atmosphere at 37° C. Selection pressure on the TRex 293 cells was maintained by continuous culture in 10 μg/ml Blasticidin (Sigma, St Louis, Mo.).
For production of TRex HEK293 cells with inducible expression of TRPV1, parental cells were electroporated with the rat TRPV1 cDNA in the pcDNA4TO vector and clonal cell lines were selected by limiting dilution in the presence of 400 μg/ml zeocin (Invitrogen, CA). TRPV1 expression was induced using 1 μg/ml tetracycline for 16 h at 37° C.
(§1) Calcium responses mediated by TRPV1 were tested by calcium assay in the cell culture system. Cells were washed and incubated with 0.2 μM fluo-4 acetoxymethyl ester (“Fluo-4”) for 30 minutes at 37° C. in a standard modified Ringer's solution of the following composition (in mM): NaCl 145, KCl 2.8, CsCl 10, CaCl2 10, MgCl2 2, glucose 10, Hepes.NaOH 10, pH 7.4, 330 mOsm. Cells were transferred to 96-well plates at 50,000 cells/well and stimulated as indicated. Calcium signals were acquired using a Flexstation 3 (Molecular Devices, Sunnydale, USA). Data was analyzed using SoftMax® Pro 5 (Molecular Devices). Where indicated, nominally calcium-free external conditions were achieved by the preparation of 0 mM CaCl2 Ringer solution containing 1 mM EGTA. Where indicated, capsaicin (10 μM) and ionomycin (500 nM) were used as positive controls to induce calcium responses. Capsazepine (10 μM) was used where indicated to specifically antagonize TRPV1-mediated calcium responses. Where indicated, baseline traces (no stimulation, NS) were subtracted. Where indicated, vehicle alone traces were subtracted. Where indicated, vehicle comprising various diluents matched to corresponding mixtures was used as a negative control.

[2] = test system: HEK wild type cells; assay: Calcium flux (Fluo-4) in wild-type HEK cells without TRPV1 construct; settings: same stimulus conditions as TRPV1-expressing cells
Description: as §1

[3] = target: T1, TRPV1; assay: Whole-cell patch clamp in single HEK293 cells overexpressing TRPV1; settings: for outward current relative to inward current: then 1 μM capsaicin; for inward current: average of 6 independent experiments
Description: HEK293 cells were kept in sodium-based extracellular Ringer's solution containing 140 mM NaCl, 1 mM CaCl2, 2 mM MgCl2, 2.8 mM KCl, 11 mM glucose, and 10 mM HEPES-NaOH, pH 7.2 and osmolarity 300 mOsmol. The cells' cytosol was perfused with intracellular patch pipette solution containing 140 mM Cs-glutamate, 8 mM NaCl, 1 mM MgCl2, 3 mM MgATP, and 10 mM HEPES-CsOH. The standard internal Ca^2+ concentration was buffered to 180 nM with 4 mM Ca and 10 mM BAPTA. The level of free unbuffered Ca was adjusted using the calculator provided with WebMaxC (http://www.stanford.edu/˜cpatton/webmaxcS.htm). The pH of the final solution was adjusted to pH 7.2 and osmolarity measured at 300 mOsmol.
1 μM capsaicin was used as a positive control for TRPV1 activation. Rapid extracellular solution application and exchange was performed with the SmartSquirt delivery system (Auto-Mate Scientific, San Francisco). The system includes a ValveLink TTL interface between the electronic valves and the EPC-9 amplifier (HEKA, Lambrecht, Germany). This configuration allows for programmable solution changes via the PatchMaster software (HEKA, Lambrecht, Germany).
Patch-clamp experiments were performed in the whole-cell configuration at 21-25° C. Patch pipettes had resistances of 2-3 MΩ. Data was acquired with PatchMaster software controlling an EPC-9 amplifier. Voltage ramps of 50 ms spanning the voltage range from −100 to 100 mV were delivered from a holding potential of 0 mV at a rate of 0.5 Hz over a period of […]. Voltages were corrected for a liquid junction potential of 10 mV. Currents were filtered at 2.9 kHz and digitized at 100 μs is intervals. Capacitive currents were determined and corrected before each voltage ramp. The development of currents for a given potential was extracted from individual ramp current records by measuring the current amplitudes at voltages of −80 mV and +80 mV. Data were analyzed with FitMaster (HEKA, Lambrecht, Germany), and IgorPro (WaveMetrics, Lake Oswego, Oreg., USA). Where applicable, statistical errors of averaged data are given as mean±s.e.m.

[4] = pre-incubation with 500 nM ionomycin

`C[C@H](CCC(=O)O)C[C@H](C)C[C@H](C)C(=O)/C=C(\O)[C@H](C)C[C@H](C)C/C=C/[C@@H](C)[C@@H](O)[C@@H](C)[C@@H](O)C[C@@H]1CC[C@@](C)([C@H]2CC[C@@](C)([C@@H](C)O)O2)O1` [ionomycin, reference compound] was tested, and the “AUC of calcium response curve, first application” value (“AUC of calcium response curve” for short) [1] was 128, the “reduction of later calcium influx in response to capsaicin” value [1, 4] was 38% and the “reduction of later calcium influx in response to myrcene” value [1, 4] was 27%.
In the case of `Oc1cc2c(cc1O)CN(C(=S)NCCc1ccc(Cl)cc1)CCC2` [capsazepine, reference compound], the “effect on calcium flux induced by myrcene” value ([1]; 10 μM capsazepine added to cells activated with 3.5 μm/ml myrcene) is reported as “diminished”.
`C=CC(=C)CCC=C(C)C` [myrcene, 7-methyl-3-methylideneocta-1,6-diene] was tested, and the “suppression of later calcium response by pre-incubation (desensitization)” value [1] was 52%, the “AUC of calcium response curve” value [1] was 66 and the “concentration inducing calcium influx to a similar degree (by AUC)” value [1] was “about 200 nM”. The “AUC of calcium response after 24 hours incubation with the same compound” value [1] was 32, the “calcium-mediated fluorescence under calcium-free medium conditions, high concentration” value ([1]; myrcene 3.5 μg/ml, calcium-free medium) was “induced such increase” and the “calcium-mediated fluorescence under calcium-free medium conditions, low concentrations” value ([1]; myrcene 0.43, 0.875 and 1.75 μg/ml, calcium-free medium) was “did not cause increase of calcium-mediated fluorescence”. The “calcium responses to different concentrations of myrcene” value ([1]; myrcene 3.5 μm/ml, 1.75 μg/ml, 0.875 μm/ml and 0.43 μm/ml) was “dose-dependent”, the “calcium flux (Fluo-4 RFU) in TRPV1-expressing HEK cells” value (“calcium flux (Fluo-4 RFU)” below) [1] was “significant calcium flux was detected” and the “calcium flux in wild-type HEK cells without TRPV1” value [2] was “much smaller”. For the same molecule, the “outward current relative to inward current” value ([3]; 5 μM myrcene) was “at a lower amplitude than the inward current”, the inward current ([3]; 5 μM myrcene, 1 mM Ca) was “approximately 0.5 nA” and the current induced ([3]; 5 μM, 10 μM and 150 μM myrcene) was 0.5-2.2 nA. For the same molecule, the “current response in individual cells to increasing myrcene” value ([3]; 5 μM, 10 μM, 150 μM myrcene) was “dose-dependent response” and the “TRPV1 channel permeation state activated” value ([3]; IV relationship, State 1 vs State 2 (dilated)) was “primarily in State 1”.
With `COc1cc(CNC(=O)CCCC/C=C/C(C)C)ccc1O` [capsaicin, reference compound] the “suppression of later calcium response by pre-incubation (desensitization)” value [1] was 69%, the “AUC of calcium response curve” value [1] was 124 and the “concentration inducing calcium influx to a similar degree (by AUC)” value [1] was “about 30 nM”. For the same molecule, the “AUC of calcium response after 24 hours incubation with the same compound” value [1] was 38, the “calcium flux (Fluo-4 RFU)” value [1] was “capsaicin-specific calcium fluxes” and the current induced ([3]; 1 μM capsaicin (not shown)) was 4-10 nA. For the same molecule, the inward current ([3]; 1 μM capsaicin applied after myrcene) was “approximately 9 nA” and the “outward current relative to inward current” value ([3]; 5 μM myrcene) was “at a lower amplitude than the inward current”.
For `C=C(C)[C@@H]1CCC(C)=C[C@H]1c1c(O)cc(CCCCC)cc1O` [cannabidiol], the “calcium flux (Fluo-4 RFU)” value [1] was “calcium flux was detected” and the “calcium flux in wild-type HEK cells without TRPV1” value [2] was “only minimal or absent”.
In the case of `C=C(C)[C@@H]1CCC(C)=C[C@H]1c1c(O)cc(CCC)cc1O` [cannabidivarin], the “calcium flux (Fluo-4 RFU)” value [1] is reported as “calcium flux was detected” and the “calcium flux in wild-type HEK cells without TRPV1” value [2] is reported as “only minimal or absent”.
`C=CC(C)(O)CCC=C(C)CCC=C(C)C` (centres unmarked) [nerolidol] was tested, and the “calcium flux (Fluo-4 RFU)” value [1] was “significant calcium flux was detected” and the “calcium flux (Fluo-4 RFU)” value ([1]; listed as Nerolidol) was “more modest agonist activity”.
In the case of `CCCCCc1cc(O)c2c(c1)OC(C)(CCC=C(C)C)C=C2` (centres unmarked) [cannabichromene], the “calcium flux (Fluo-4 RFU)” value [1] is reported as “calcium flux was detected” and the “calcium flux in wild-type HEK cells without TRPV1” value [2] is reported as “only minimal or absent”.
In the case of `C=C(C)[C@@H]1CCC(C)=C[C@H]1c1c(O)cc(CCCCC)c(C(=O)O)c1O` [cannabidiolic acid], the “calcium flux (Fluo-4 RFU)” value [1] is reported as “calcium flux was detected” and the “calcium flux in wild-type HEK cells without TRPV1” value [2] is reported as “only minimal or absent”.
In the case of `CCCCCc1cc(O)c(C/C=C(\C)CCC=C(C)C)c(O)c1C(=O)O` [cannabigerolic acid], the “calcium flux (Fluo-4 RFU)” value [1] is reported as “calcium flux was detected” and the “calcium flux in wild-type HEK cells without TRPV1” value [2] is reported as “only minimal or absent”.
